Where two headings read alike, the source gives them in different places.
Experiments:
[1] = tested on: Phytophthora infestans; test: microbe, parasite or virus in culture; assay type: cell-based; conditions: for inhibitory activity compared with OXA: 5, 0.5 and 0.05 mg/L, in words; for inhibition at 0.005 µg/mL / inhibition at 0.05 µg/mL / inhibition at 0.5 µg/mL / inhibition at 5 µg/mL: read-out: inhibitory activity on hypha growth
[2] = tested on: Phytophthora nicotianae; test: In vitro inhibition of hypha growth of oomycete pathogens (microplate, OD595): Phytophthora nicotianae; assay type: cell-based; conditions: for inhibition at 0.005 µg/mL / inhibition at 0.05 µg/mL / inhibition at 0.5 µg/mL / inhibition at 5 µg/mL: Phytophthora nicotianae, read-out: inhibitory activity on hypha growth; for inhibitory activity compared with OXA: Pythium nicotianae, 5, 0.5 and 0.05 mg/L, in words
[3] = tested on: Phytophthora capsici; test: In vitro inhibition of hypha growth of oomycete pathogens (microplate, OD595): Phytophthora capsici; assay type: cell-based; conditions: for inhibitory activity compared with OXA: 5, 0.5 and 0.05 mg/L, in words; for inhibition at 0.005 µg/mL / inhibition at 0.05 µg/mL / inhibition at 0.5 µg/mL / inhibition at 5 µg/mL: read-out: inhibitory activity on hypha growth
[4] = tested on: Cucumber downy mildew (Pseudoperonospora cubensis); test: Field efficacy test for controlling cucumber downy mildew
Protocol: The test was carried out according to the Guidelines for the Field Efficacy Trials of Pesticides (Part 1): Fungicides Against Downy Mildew of Cucumber (GB/T17980.26-2000). The test site was a mature vegetable base of Hushu in Nanjing, Jiangsu Province. Cucumber downy mildew (Pseudoperonospora cubensis) was used as the target, oxathiapiprolin and Yin Fali were used as control agents. The test crops was cucumber and the variety was ‘Green Core’. The plots were arranged in a randomized block design, with each plot approximately 8 m^2 and each treatment replicated three times. The whole stem and leaf spray was employed, the test was carried out at the early stage of cucumber downy mildew occurrence, and the agents were applied twice consecutively, with the second application 5 days after the first one. The investigation method was to take one investigation point for every row of cucumbers in each treatment district, assess the severity of downy mildew of all leaves of all cucumber plants, and calculate the disease index and the prevention effect.

[5] = tested on: Phytophthora sojae; test: In vitro inhibition of hypha growth of oomycete pathogens (microplate, OD595): Phytophthora sojae; assay type: cell-based; conditions: for inhibitory activity compared with OXA: 5, 0.5 and 0.05 mg/L, in words; for inhibition at 0.005 µg/mL / inhibition at 0.05 µg/mL / inhibition at 0.5 µg/mL / inhibition at 5 µg/mL: read-out: inhibitory activity on hypha growth
[6] = tested on: cucumber downy mildew; test: Activity in vivo for inhibiting cucumber downy mildew (potting method, greenhouse); conditions: for efficacy compared with OXA / efficacy compared with dimethomorph and cyazofamid / efficacy compared with oxathiapiprolin / bactericidal activity: in words
Description: The test and investigation method refers to a SOP-SC-1098 cucumber downy mildew potting method in the fungicide section of Standard operation Specification for testing biological Activity of pesticides written by Kang Zhuo and Gu Baogen.

[7] = tested on: cucumber downy mildew; conditions: Table 3, data from Li, J. L. et al. 2020, cited from earlier work
[8] = after the first pesticide application, 50 mg/L
[9] = after the second pesticide application, 50 mg/L
[10] = 0.005 mg/L, re-screening, Table 2
[11] = 0.02 mg/L, re-screening, Table 2
[12] = 0.078 mg/L, re-screening, Table 2
[13] = 0.312 mg/L, re-screening, Table 2
[14] = 1.25 mg/L, re-screening, Table 2

## CCOC(CC(=O)N1CCC(c2nc(C3=NOC(c4c(F)cccc4F)C3)cs2)CC1)OC (centres unmarked) [II-3]
[1]
  inhibitory activity compared with OXA: comparable to that of the control agent OXA
  inhibition at 0.005 µg/mL: 75 to 90%
  inhibition at 0.05 µg/mL: 90 to 100%
  inhibition at 0.5 µg/mL: 90 to 100%
  inhibition at 5 µg/mL: 90 to 100%
[2]
  inhibition at 0.005 µg/mL: 90 to 100%
  inhibition at 0.05 µg/mL: 90 to 100%
  inhibition at 0.5 µg/mL: 90 to 100%
  inhibition at 5 µg/mL: 90 to 100%
  inhibitory activity compared with OXA: comparable to that of the control agent OXA
[3]
  inhibitory activity compared with OXA: comparable to that of the control agent OXA
  inhibition at 0.005 µg/mL: 90 to 100%
  inhibition at 0.05 µg/mL: 90 to 100%
  inhibition at 0.5 µg/mL: 90 to 100%
  inhibition at 5 µg/mL: 90 to 100%
[4]; 50 mg/L, in words
  control effect compared with OXA and Yinfali: better than that of the control agents OXA and Yinfali
[4]; [8]
  Average control effect: 66.63%
  Average disease index: 2.80
[4]; [9]
  Average control effect: 79.72%
  Average disease index: 6.93
[4]; in words
  effect in controlling cucumber downy mildew in the field: good effect in controlling cucumber downy mildew, it can effectively protect new leaves and can effectively inhibit the spread of disease spots on the infected leaves
[5]
  inhibitory activity compared with OXA: comparable to that of the control agent OXA
  inhibition at 0.005 µg/mL: 75 to 90%
  inhibition at 0.05 µg/mL: 90 to 100%
  inhibition at 0.5 µg/mL: 90 to 100%
  inhibition at 5 µg/mL: 90 to 100%
[6]; 0.005 mg/L
  efficacy compared with OXA: comparable to that of the control agent OXA
[6]; [10]
  Control effect: A (90%≤A≤100%)
[6]; [11]
  Control effect: A (90%≤A≤100%)
[6]; 0.078 mg/L
  efficacy compared with dimethomorph and cyazofamid: superior to that of dimethomorph and cyazofamid
  efficacy compared with oxathiapiprolin: equivalent to that of oxathiapiprolin at the same concentration
[6]; 0.078 mg/L, re-screening
  Control effect: ≥ 90%
[6]; [12]
  Control effect: A (90%≤A≤100%)
[6]; [13]
  Control effect: A (90%≤A≤100%)
[6]; 0.625 mg/L, Table 3
  Control effect: A (90% ≤ A ≤ 100%)
[6]; 1.25 mg/L, Table 1
  Control effect: A (90%≤A≤100%)
[6]; [14]
  Control effect: A (90%≤A≤100%)
[6]; 2.5 mg/L, Table 3
  Control effect: A (90% ≤ A ≤ 100%)
[6]; 5 mg/L, Table 1
  Control effect: A (90%≤A≤100%)
[6]; 10 mg/L, Table 3
  Control effect: A (90% ≤ A ≤ 100%)
[6]; 20 mg/L, Table 1
  Control effect: A (90%≤A≤100%)
[6]; re-screening
  bactericidal activity: excellent bactericidal activity

## COC(CC(=O)N1CCC(c2nc(C3=NOC(c4c(F)cccc4F)C3)cs2)CC1)OCC(F)(F)F (centres unmarked) [II-18]
[1]
  inhibitory activity compared with OXA: comparable to that of the control agent OXA
  inhibition at 0.005 µg/mL: 90 to 100%
  inhibition at 0.05 µg/mL: 90 to 100%
  inhibition at 0.5 µg/mL: 90 to 100%
  inhibition at 5 µg/mL: 90 to 100%
[2]
  inhibition at 0.005 µg/mL: 75 to 90%
  inhibition at 0.05 µg/mL: 90 to 100%
  inhibition at 0.5 µg/mL: 90 to 100%
  inhibition at 5 µg/mL: 90 to 100%
  inhibitory activity compared with OXA: comparable to that of the control agent OXA
[3]
  inhibitory activity compared with OXA: comparable to that of the control agent OXA
  inhibition at 0.005 µg/mL: 90 to 100%
  inhibition at 0.05 µg/mL: 90 to 100%
  inhibition at 0.5 µg/mL: 90 to 100%
  inhibition at 5 µg/mL: 90 to 100%
[5]
  inhibitory activity compared with OXA: comparable to that of the control agent OXA
  inhibition at 0.005 µg/mL: 90 to 100%
  inhibition at 0.05 µg/mL: 90 to 100%
  inhibition at 0.5 µg/mL: 90 to 100%
  inhibition at 5 µg/mL: 90 to 100%
[6]; 0.005 mg/L
  efficacy compared with OXA: comparable to that of the control agent OXA
[6]; [10]
  Control effect: A (90%≤A≤100%)
[6]; [11]
  Control effect: A (90%≤A≤100%)
[6]; 0.078 mg/L
  efficacy compared with dimethomorph and cyazofamid: superior to that of dimethomorph and cyazofamid
  efficacy compared with oxathiapiprolin: equivalent to that of oxathiapiprolin at the same concentration
[6]; 0.078 mg/L, re-screening
  Control effect: ≥ 90%
[6]; [12]
  Control effect: A (90%≤A≤100%)
[6]; [13]
  Control effect: A (90%≤A≤100%)
[6]; 0.625 mg/L, Table 3
  Control effect: A (90% ≤ A ≤ 100%)
[6]; 1.25 mg/L, Table 1
  Control effect: A (90%≤A≤100%)
[6]; [14]
  Control effect: A (90%≤A≤100%)
[6]; 2.5 mg/L, Table 3
  Control effect: A (90% ≤ A ≤ 100%)
[6]; 5 mg/L, Table 1
  Control effect: A (90%≤A≤100%)
[6]; 10 mg/L, Table 3
  Control effect: A (90% ≤ A ≤ 100%)
[6]; 20 mg/L, Table 1
  Control effect: A (90%≤A≤100%)
[6]; re-screening
  bactericidal activity: excellent bactericidal activity

## O=C(CC1OCCCO1)N1CCC(c2nc(C3=NOC(c4c(F)cccc4F)C3)cs2)CC1 (centres unmarked) [II-21]
[6]; 1.25 mg/L, Table 1
  Control effect: D (45%≤D<60%)
[6]; 5 mg/L, Table 1
  Control effect: B (75%≤B<90%)
[6]; 20 mg/L, Table 1
  Control effect: A (90%≤A≤100%)

## O=C(CC1OCCO1)N1CCC(c2nc(C3=NOC(c4c(F)cccc4F)C3)cs2)CC1 (centres unmarked) [II-22]
[6]; 5 mg/L, Table 1
  Control effect: D (45%≤D<60%)
[6]; 20 mg/L, Table 1
  Control effect: A (90%≤A≤100%)

## O=C(CC1OCCCCO1)N1CCC(c2nc(C3=NOC(c4c(F)cccc4F)C3)cs2)CC1 (centres unmarked) [II-28]
[6]; 5 mg/L, Table 1
  Control effect: C (60%≤C<75%)
[6]; 20 mg/L, Table 1
  Control effect: C (60%≤C<75%)

## Cc1cc(C(F)(F)F)nn1CC(=O)N1CCC(c2nc(C3=NOC(c4c(F)cccc4F)C3)cs2)CC1 (centres unmarked) [OXA, oxathiapiprolin, reference compound]
[1]
  inhibition at 0.005 µg/mL: 90 to 100%
  inhibition at 0.05 µg/mL: 90 to 100%
  inhibition at 0.5 µg/mL: 90 to 100%
  inhibition at 5 µg/mL: 90 to 100%
[2]
  inhibition at 0.005 µg/mL: 90 to 100%
  inhibition at 0.05 µg/mL: 90 to 100%
  inhibition at 0.5 µg/mL: 90 to 100%
  inhibition at 5 µg/mL: 90 to 100%
[3]
  inhibition at 0.005 µg/mL: 90 to 100%
  inhibition at 0.05 µg/mL: 90 to 100%
  inhibition at 0.5 µg/mL: 90 to 100%
  inhibition at 5 µg/mL: 90 to 100%
[4]; [8]
  Average control effect: 36.02%
  Average disease index: 5.36
[4]; [9]
  Average control effect: 74.87%
  Average disease index: 8.59
[5]
  inhibition at 0.005 µg/mL: 90 to 100%
  inhibition at 0.05 µg/mL: 90 to 100%
  inhibition at 0.5 µg/mL: 90 to 100%
  inhibition at 5 µg/mL: 90 to 100%
[6]; [10]
  Control effect: A (90%≤A≤100%)
[6]; [11]
  Control effect: A (90%≤A≤100%)
[6]; [12]
  Control effect: A (90%≤A≤100%)
[6]; [13]
  Control effect: A (90%≤A≤100%)
[6]; 0.625 mg/L, Table 3
  Control effect: A (90% ≤ A ≤ 100%)
[6]; [14]
  Control effect: A (90%≤A≤100%)
[6]; 2.5 mg/L, Table 3
  Control effect: A (90% ≤ A ≤ 100%)
[6]; 10 mg/L, Table 3
  Control effect: A (90% ≤ A ≤ 100%)

## CC(C)CCC(=O)N1CCC(c2nc(C3=NOC(c4c(F)cccc4F)C3)cs2)CC1 (centres unmarked) [comparative 1]
[7]; 0.625 mg/L
  Control effect: E (0% ≤ E < 45%)
[7]; 2.5 mg/L
  Control effect: B (75% ≤ B < 90%)
[7]; 10 mg/L
  Control effect: B (75% ≤ B < 90%)

From patent publication US20260363243A1 (priority 2022, published 2026)
